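In this assay, cells in 96-well plates receive the compound at five concentrations for 48 hours. Endpoints are linearly interpolated between the surrounding concentrations. GI50 = concentration required for 50% inhibition of growth. At the TGI there is no net growth.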
Assays:
Test in all cases: NCI tumour cell line growth inhibition, 48 h
K-562 leukemia = tested on: K-562 leukemia
OVCAR-5 ovarian = tested on: OVCAR-5 ovarian
CAKI-1 renal = tested on: CAKI-1 renal
UACC-257 melanoma = tested on: UACC-257 melanoma
IGROV1 ovarian = tested on: IGROV1 ovarian
SK-OV-3 ovarian = tested on: SK-OV-3 ovarian
MOLT-4 leukemia = tested on: MOLT-4 leukemia
SW-620 colon = tested on: SW-620 colon
OVCAR-8 ovarian = tested on: OVCAR-8 ovarian
SF-295 CNS = tested on: SF-295 CNS
EKVX NSCLC = tested on: EKVX NSCLC
HOP-62 NSCLC = tested on: HOP-62 NSCLC
RPMI-8226 leukemia = tested on: RPMI-8226 leukemia
LOX IMVI melanoma = tested on: LOX IMVI melanoma
SN12C renal = tested on: SN12C renal
T-47D breast = tested on: T-47D breast
NCI-H460 lung = tested on: NCI-H460 lung
MALME-3M melanoma = tested on: MALME-3M melanoma
ACHN renal = tested on: ACHN renal
OVCAR-3 ovarian = tested on: OVCAR-3 ovarian
SNB-75 CNS = tested on: SNB-75 CNS
UO-31 renal = tested on: UO-31 renal
SK-MEL-28 melanoma = tested on: SK-MEL-28 melanoma
SK-MEL-2 melanoma = tested on: SK-MEL-2 melanoma
786-0 renal = tested on: 786-0 renal
SK-MEL-5 melanoma = tested on: SK-MEL-5 melanoma
SF-268 CNS = tested on: SF-268 CNS
SR leukemia = tested on: SR leukemia
KM12 colon = tested on: KM12 colon
A549 NSCLC = tested on: A549 NSCLC
HCT-116 colon = tested on: HCT-116 colon
A498 renal = tested on: A498 renal
U251 CNS = tested on: U251 CNS
HL-60(TB) leukemia = tested on: HL-60(TB) leukemia
COLO 205 colon = tested on: COLO 205 colon
RXF 393 renal = tested on: RXF 393 renal
MCF7 breast = tested on: MCF7 breast
HOP-92 NSCLC = tested on: HOP-92 NSCLC
HCC-2998 colon = tested on: HCC-2998 colon
BT-549 breast = tested on: BT-549 breast
HCT-15 colon = tested on: HCT-15 colon
NCI/ADR-RES ovarian = tested on: NCI/ADR-RES ovarian
OVCAR-4 ovarian = tested on: OVCAR-4 ovarian
DU-145 prostate = tested on: DU-145 prostate
UACC-62 melanoma = tested on: UACC-62 melanoma
MDA-MB-231 breast = tested on: MDA-MB-231 breast
SF-539 CNS = tested on: SF-539 CNS
CCRF-CEM leukemia = tested on: CCRF-CEM leukemia
HS 578T breast = tested on: HS 578T breast
NCI-H522 lung = tested on: NCI-H522 lung
TK-10 renal = tested on: TK-10 renal
SNB-19 CNS = tested on: SNB-19 CNS
NCI-H226 lung = tested on: NCI-H226 lung
NCI-H23 lung = tested on: NCI-H23 lung
HT29 colon = tested on: HT29 colon
MDA-MB-435 = tested on: MDA-MB-435
PC-3 prostate = tested on: PC-3 prostate
M14 melanoma = tested on: M14 melanoma

Compound O=C(NCCc1ccccn1)OCc1nc2nc(Cl)nc(N3CCOCC3)c2[nH]1 has a GI50 (K-562 leukemia) of 2.07 µM, a TGI (K-562 leukemia) of 14.3 µM and a GI50 (OVCAR-5 ovarian) of 1.67 µM. It also gave a TGI (OVCAR-5 ovarian) of 3.38 µM, a GI50 (CAKI-1 renal) of 1.36 µM and a TGI (CAKI-1 renal) of 3.04 µM. For the same compound, the GI50 (UACC-257 melanoma) was 1.87 µM, the TGI (UACC-257 melanoma) was 5.26 µM and the GI50 (IGROV1 ovarian) was 1.57 µM. It also gave a TGI (IGROV1 ovarian) of 2.98 µM, a GI50 (SK-OV-3 ovarian) of 6.11 µM and a TGI (SK-OV-3 ovarian) of 19.5 µM. The GI50 (MOLT-4 leukemia) was 3 µM, the TGI (MOLT-4 leukemia) was 9.5 µM and the GI50 (SW-620 colon) was 1.7 µM. It also gave a TGI (SW-620 colon) of 4.25 µM, a GI50 (OVCAR-8 ovarian) of 3.17 µM and a TGI (OVCAR-8 ovarian) of 15.4 µM. For the same compound, the GI50 (SF-295 CNS) was 4.96 µM, the TGI (SF-295 CNS) was 17.4 µM and the GI50 (EKVX NSCLC) was 2.93 µM. For the same compound, the TGI (EKVX NSCLC) was 11.3 µM, the GI50 (HOP-62 NSCLC) was 2.37 µM and the TGI (HOP-62 NSCLC) was 12.6 µM. For the same compound, the GI50 (RPMI-8226 leukemia) was 1.62 µM, the TGI (RPMI-8226 leukemia) was 5.63 µM and the GI50 (LOX IMVI melanoma) was 0.372 µM. The TGI (LOX IMVI melanoma) was 1.61 µM, the GI50 (SN12C renal) was 1.5 µM and the TGI (SN12C renal) was 3.19 µM. It also gave a GI50 (T-47D breast) of 2.13 µM, a TGI (T-47D breast) of 6.48 µM and a GI50 (NCI-H460 lung) of 3.12 µM. The TGI (NCI-H460 lung) was 11.1 µM, the GI50 (MALME-3M melanoma) was 1.62 µM and the TGI (MALME-3M melanoma) was 3.1 µM. It also gave a GI50 (ACHN renal) of 1.29 µM, a TGI (ACHN renal) of 2.55 µM and a GI50 (OVCAR-3 ovarian) of 1.26 µM. It also gave a TGI (OVCAR-3 ovarian) of 2.73 µM, a GI50 (SNB-75 CNS) of 2.42 µM and a TGI (SNB-75 CNS) of 15.5 µM. It also gave a GI50 (UO-31 renal) of 1.28 µM, a TGI (UO-31 renal) of 2.55 µM and a GI50 (SK-MEL-28 melanoma) of 1.67 µM. For the same compound, the TGI (SK-MEL-28 melanoma) was 3.32 µM, the GI50 (SK-MEL-2 melanoma) was 4.16 µM and the TGI (SK-MEL-2 melanoma) was 15.6 µM. It also gave a GI50 (786-0 renal) of 1.75 µM, a TGI (786-0 renal) of 3.52 µM and a GI50 (SK-MEL-5 melanoma) of 2.1 µM. It also gave a TGI (SK-MEL-5 melanoma) of 4.54 µM, a GI50 (SF-268 CNS) of 1.69 µM and a TGI (SF-268 CNS) of 3.8 µM. For the same compound, the GI50 (SR leukemia) was 1.97 µM, the TGI (SR leukemia) was > 100 µM and the GI50 (KM12 colon) was 2.63 µM. For the same compound, the TGI (KM12 colon) was 10.8 µM, the GI50 (A549 NSCLC) was 7.16 µM and the TGI (A549 NSCLC) was 24.9 µM. For the same compound, the GI50 (HCT-116 colon) was 0.816 µM, the TGI (HCT-116 colon) was 2.09 µM and the GI50 (A498 renal) was 2.64 µM. For the same compound, the TGI (A498 renal) was 10.4 µM, the GI50 (U251 CNS) was 3.39 µM and the TGI (U251 CNS) was 12.2 µM. For the same compound, the GI50 (HL-60(TB) leukemia) was 1.83 µM, the TGI (HL-60(TB) leukemia) was 4.96 µM and the GI50 (COLO 205 colon) was 2.44 µM. It also gave a TGI (COLO 205 colon) of 6.12 µM, a GI50 (RXF 393 renal) of 1.12 µM and a TGI (RXF 393 renal) of 2.4 µM. For the same compound, the GI50 (MCF7 breast) was 1.59 µM, the TGI (MCF7 breast) was 5.17 µM and the GI50 (HOP-92 NSCLC) was 1.15 µM. For the same compound, the TGI (HOP-92 NSCLC) was 3.81 µM, the GI50 (HCC-2998 colon) was 1.74 µM and the TGI (HCC-2998 colon) was 3.33 µM. For the same compound, the GI50 (BT-549 breast) was 2.22 µM, the TGI (BT-549 breast) was 6.83 µM and the GI50 (HCT-15 colon) was 1.74 µM. It also gave a TGI (HCT-15 colon) of 5.17 µM, a GI50 (NCI/ADR-RES ovarian) of 1.44 µM and a TGI (NCI/ADR-RES ovarian) of 6.22 µM. The GI50 (OVCAR-4 ovarian) was 1.7 µM, the TGI (OVCAR-4 ovarian) was 3.85 µM and the GI50 (DU-145 prostate) was 1.57 µM. For the same compound, the TGI (DU-145 prostate) was 3.04 µM, the GI50 (UACC-62 melanoma) was 1.53 µM and the TGI (UACC-62 melanoma) was 3.03 µM. The GI50 (MDA-MB-231 breast) was 1.6 µM, the TGI (MDA-MB-231 breast) was 3.17 µM and the GI50 (SF-539 CNS) was 1.5 µM. The TGI (SF-539 CNS) was 2.85 µM, the GI50 (CCRF-CEM leukemia) was 2.18 µM and the TGI (CCRF-CEM leukemia) was 9.74 µM. The GI50 (HS 578T breast) was 2.71 µM, the TGI (HS 578T breast) was 9.77 µM and the GI50 (NCI-H522 lung) was 1.93 µM. It also gave a TGI (NCI-H522 lung) of 4.96 µM, a GI50 (TK-10 renal) of 1.94 µM and a TGI (TK-10 renal) of 4 µM. The GI50 (SNB-19 CNS) was 4.58 µM, the TGI (SNB-19 CNS) was 16.5 µM and the GI50 (NCI-H226 lung) was 1.61 µM. For the same compound, the TGI (NCI-H226 lung) was 3.29 µM, the GI50 (NCI-H23 lung) was 1.77 µM and the TGI (NCI-H23 lung) was 4.14 µM. For the same compound, the GI50 (HT29 colon) was 1.98 µM, the TGI (HT29 colon) was 6.75 µM and the GI50 (MDA-MB-435) was 1.33 µM. It also gave a TGI (MDA-MB-435) of 2.78 µM, a GI50 (PC-3 prostate) of 1.7 µM and a TGI (PC-3 prostate) of 3.73 µM.

In the case of O=C(CCN1CCN2c3ccccc3CCC2C1)c1ccc(F)cc1 (stereo unspecified), the TGI (K-562 leukemia) is reported as > 100 µM, the TGI (OVCAR-5 ovarian) is reported as 62.2 µM and the TGI (CAKI-1 renal) is reported as 44.4 µM. The TGI (UACC-257 melanoma) was 97.1 µM, the TGI (IGROV1 ovarian) was 47.9 µM and the TGI (SK-OV-3 ovarian) was > 100 µM. The TGI (MOLT-4 leukemia) was > 100 µM, the TGI (SW-620 colon) was > 100 µM and the TGI (OVCAR-8 ovarian) was > 100 µM. For the same compound, the TGI (SF-295 CNS) was > 100 µM, the TGI (EKVX NSCLC) was 58.5 µM and the TGI (HOP-62 NSCLC) was 52.8 µM. For the same compound, the TGI (RPMI-8226 leukemia) was > 100 µM, the TGI (LOX IMVI melanoma) was > 100 µM and the TGI (SN12C renal) was > 100 µM. The TGI (T-47D breast) was 45.9 µM, the TGI (NCI-H460 lung) was > 100 µM and the TGI (MALME-3M melanoma) was 49.2 µM. The TGI (ACHN renal) was 43.3 µM, the TGI (OVCAR-3 ovarian) was 71.4 µM and the TGI (SNB-75 CNS) was 44.8 µM. For the same compound, the TGI (UO-31 renal) was 40.8 µM, the TGI (SK-MEL-28 melanoma) was 32.2 µM and the TGI (SK-MEL-2 melanoma) was 53.3 µM. The TGI (786-0 renal) was 43.6 µM, the TGI (SK-MEL-5 melanoma) was 49.9 µM and the TGI (SF-268 CNS) was > 100 µM. For the same compound, the TGI (SR leukemia) was > 100 µM, the TGI (KM12 colon) was > 100 µM and the TGI (A549 NSCLC) was > 100 µM. The TGI (HCT-116 colon) was > 100 µM, the TGI (A498 renal) was > 100 µM and the TGI (U251 CNS) was > 100 µM. The TGI (HL-60(TB) leukemia) was 89.6 µM, the TGI (COLO 205 colon) was 44.4 µM and the TGI (RXF 393 renal) was 43.3 µM. The TGI (MCF7 breast) was 51.3 µM, the TGI (HOP-92 NSCLC) was 82.1 µM and the TGI (M14 melanoma) was > 100 µM. The TGI (BT-549 breast) was 50 µM, the TGI (HCT-15 colon) was 55.1 µM and the TGI (NCI/ADR-RES ovarian) was > 100 µM. For the same compound, the TGI (OVCAR-4 ovarian) was 37.8 µM, the TGI (DU-145 prostate) was 90.3 µM and the TGI (UACC-62 melanoma) was > 100 µM. For the same compound, the TGI (MDA-MB-231 breast) was > 100 µM, the TGI (SF-539 CNS) was 39.9 µM and the TGI (CCRF-CEM leukemia) was > 100 µM. For the same compound, the TGI (HS 578T breast) was > 100 µM, the TGI (NCI-H522 lung) was 35.7 µM and the TGI (TK-10 renal) was 66 µM. The TGI (SNB-19 CNS) was 47.5 µM, the TGI (NCI-H226 lung) was 98.6 µM and the TGI (NCI-H23 lung) was > 100 µM. The TGI (HT29 colon) was 41.7 µM, the TGI (MDA-MB-435) was 47.4 µM and the TGI (PC-3 prostate) was > 100 µM.
